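Five compound concentrations were applied to cells in 96-well plates for 48 hours; endpoints were derived by simple linear interpolation of the resulting dose-response curve. GI50 is the concentration that inhibits growth by half.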 The source made the active and inactive calls. Rule as the data show it: active = GI50 up to about 1.1 µM and inactive = higher.
Assays:
Assay in all cases: NCI-60 cell line screen, 48 h
786-0 = tested on: 786-0
A498 = tested on: A498
CAKI-1 = tested on: CAKI-1
HT-29 = tested on: HT-29
IGROV-1 = tested on: IGROV-1
MDA-MB-231 = tested on: MDA-MB-231
Malme-3M = tested on: Malme-3M
NCI-H226 = tested on: NCI-H226
NCI-H23 = tested on: NCI-H23
NCI-H460 = tested on: NCI-H460
NCI-H522 = tested on: NCI-H522
RPMI-8226 = tested on: RPMI-8226
SK-MEL-28 = tested on: SK-MEL-28
SN12C = tested on: SN12C
UACC-62 = tested on: UACC-62
EKVX = tested on: EKVX
RXF 393 = tested on: RXF 393
SF-539 = tested on: SF-539
Hs-578T = tested on: Hs-578T

Measured: GI50

COc1ccc(C2c3c[nH]nc3CC3CCCCC32)cc1 (stereo not drawn)
inactive: 786-0 18.6 µM | A498 11 µM | CAKI-1 14.2 µM | HT-29 23.4 µM | IGROV-1 12.7 µM | MDA-MB-231 14 µM | Malme-3M 19.5 µM | NCI-H226 17.4 µM | NCI-H23 17.4 µM | NCI-H460 16.5 µM | NCI-H522 19.8 µM | RPMI-8226 19.8 µM | SK-MEL-28 18.3 µM | SN12C 16.9 µM | UACC-62 11.9 µM

O=C(c1ccccc1)c1cn(/N=C\c2ccccc2)c(=O)nc1-c1ccccc1
inactive: 786-0 > 100 µM | A498 > 100 µM | EKVX > 100 µM | HT-29 > 100 µM | Malme-3M > 100 µM | NCI-H226 > 100 µM | NCI-H23 > 100 µM | NCI-H460 > 100 µM | NCI-H522 > 100 µM | RXF 393 > 100 µM | SF-539 > 100 µM | SK-MEL-28 > 100 µM | SN12C > 100 µM | UACC-62 > 100 µM

CN(C)CCN(/C(=N/c1ccccc1)N1CCCC1)c1ccccc1
inactive: 786-0 > 10 µM | CAKI-1 > 100 µM | EKVX > 100 µM | HT-29 5.01 µM | Hs-578T > 100 µM | IGROV-1 13.7 µM | Malme-3M > 100 µM | NCI-H226 75.9 µM | NCI-H23 31 µM | NCI-H460 42.4 µM | NCI-H522 16.5 µM | RPMI-8226 22.6 µM | SK-MEL-28 > 100 µM | SN12C 50.5 µM | UACC-62 11.9 µM

Cc1ccc(S(=O)(=O)N2CCC(=O)c3cc(Br)ccc32)cc1
inactive: 786-0 10.1 µM | A498 15 µM | CAKI-1 11.8 µM | EKVX 23.9 µM | HT-29 6.25 µM | IGROV-1 6.1 µM | MDA-MB-231 6.44 µM | Malme-3M 22 µM | NCI-H226 37.7 µM | NCI-H23 19.2 µM | NCI-H460 19.3 µM | NCI-H522 7.93 µM | RPMI-8226 12.2 µM | RXF 393 12.5 µM | SF-539 5 µM | SK-MEL-28 24.7 µM | SN12C 12.9 µM | UACC-62 5.21 µM

CN(C)c1nncc2[nH]nnc12
inactive: 786-0 > 100 µM | A498 > 100 µM | CAKI-1 > 100 µM | EKVX > 100 µM | HT-29 > 100 µM | IGROV-1 > 100 µM | Malme-3M 92.3 µM | NCI-H226 > 100 µM | NCI-H23 > 100 µM | NCI-H522 > 100 µM | RPMI-8226 > 100 µM | SF-539 > 100 µM | SK-MEL-28 > 100 µM | SN12C > 100 µM | UACC-62 > 100 µM

S=C(S)NCCCn1ccnc1
inactive: 786-0 > 100 µM | A498 > 100 µM | CAKI-1 > 100 µM | EKVX > 100 µM | HT-29 > 100 µM | IGROV-1 > 100 µM | MDA-MB-231 > 100 µM | Malme-3M > 100 µM | NCI-H226 > 100 µM | NCI-H23 > 100 µM | NCI-H460 > 100 µM | NCI-H522 > 100 µM | RPMI-8226 > 100 µM | SF-539 > 100 µM | SK-MEL-28 > 100 µM | SN12C > 100 µM | UACC-62 > 100 µM

CN(C)CCCNc1ccc2ncn3c4ccccc4c(=O)c1c23
inactive: 786-0 4.52 µM | A498 > 10 µM | HT-29 4.88 µM | IGROV-1 7.66 µM | Malme-3M 13.7 µM | NCI-H226 7.21 µM | NCI-H23 12.3 µM | NCI-H460 3.43 µM | NCI-H522 6.17 µM | RPMI-8226 4.71 µM | SF-539 8.73 µM | SK-MEL-28 31.6 µM | SN12C 11.5 µM | UACC-62 12.8 µM
